Source: patent US20070117770A1, “Human ribosomal DNA (rDNA) and ribosomal RNA (rRNA) nucleic acids and uses thereof” (Cylene Pharmaceuticals, Inc., priority 2005, published 2007)

Tests used:
Assay in all cases: Protein kinase inhibition assay
CaMKII(r) = assay type: biochemical, rat; details: 2.5 μM
Procedure: (§1) Certain compounds were tested for activity in protein kinase inhibition assays. All substrates were dissolved and diluted to working stocks in de-ionized water, apart from histone H1 (10× working stock in 20 mM MOPS pH 7.0), PDKtide (10× working stock in 50 mM Tris pH 7.0) ATF2 (which is typically stored at a 20× working stock in 50 mM Tris pH 7.5, 150 mM NaCl, 0.1 mM EGTA, 0.03% Brij-35, 50% glycerol, 1 mM benzamidine, 0.2 mM PMSF and 0.1% R-mercaptoethanol), KKLNRTLSFAEPG (SEQ ID NO:203) and RRRLSFAEPG (SEQ ID NO:204) (50 mM HEPES pH 7.4) and GGEEEEYFELVKKKK (SEQ ID NO:205) (20 mM MOPS pH 7.0). All kinases were pre-diluted to a 10× working concentration prior to addition into the assay. The composition of the dilution buffer for each kinase is detailed below.
(§2) In a final reaction volume of 25 μl, CaMKII (r) (5-10 mU) is incubated with 40 mM HEPES pH 7.4, 5 mM CaCl2, 30 μg/ml calmodulin, 30 μM KKLNRTLSVA (SEQ ID NO:212), 10 mM MgAcetate and [gamma-33P-ATP] (specific activity approx. 500 cpm/pmol, concentration as required). The reaction is initiated by the addition of the MgATP mix. After incubation for 40 minutes at room temperature, the reaction is stopped by the addition of 5 μl of a 3% phosphoric acid solution. […]

PAR-1Bα(h) = PAR-1Bα(h) (Homo sapiens, UniProt Q7KZI7); assay type: biochemical; details: read-out: percent residual activity of PAR-1Bα(h)
Procedure: as §1
In a final reaction volume of 25 μl, PAR-1Bα (h) (5-10 mU) is incubated with 8 mM MOPS pH 7.0, 0.2 mM EDTA, 100 μM […] (SEQ ID NO:213), 10 mM MgAcetate and [gamma-33P-ATP] (specific activity approx. 500 cpm/pmol, concentration as required). The reaction is initiated by the addition of the MgATP mix. After incubation for 40 minutes at room temperature, the reaction is stopped by the addition of 5 μl of a 3% phosphoric acid solution. 10 pi of the reaction is then spotted onto a P30 filtermat and washed three times for 5 minutes in 75 mM phosphoric acid and once in methanol prior to drying and scintillation counting.

PKA(h) = PKA(h) (Homo sapiens, UniProt P17612); assay type: biochemical; details: read-out: percent residual activity of PKA(h)
Procedure: as §1
In a final reaction volume of 25 μl, PKA (h) (5-10 mU) is incubated with 8 mM MOPS pH 7.0, 0.2 mM EDTA, 30 μM LRRASLG (SEQ ID NO:209) (Kemptide), 10 mM MgAcetate and [y-33P-ATP] (specific activity approx. 500 cpm/pmol, concentration as required). The reaction is initiated by the addition of the MgATP mix. After incubation for 40 minutes at room temperature, the reaction is stopped by the addition of 5 μl of a 3% phosphoric acid solution. 10 μl of the reaction is then spotted onto a P30 filtermat and washed three times for 5 minutes in 50 mM phosphoric acid and once in methanol prior to drying and scintillation counting.

PKCδ(h) = PKCδ(h) (Homo sapiens, UniProt Q05655); assay type: biochemical; details: read-out: percent residual activity of PKCδ(h)
Procedure: as §1
as §2, with “μl, PKCδ (h)” for “μl, CaMKII (r)”, “with 20” for “with 40”, “7.4, 0.03% Triton X-100, 0.1 mg/ml phosphatidylserine, 10” for “7.4, 5 mM CaCl2, 30”, “μg/ml diacylglycerol, 50” for “μg/ml calmodulin, 30”, “μM ERMRPRKRQGSVRRRV” for “μM KKLNRTLSVA”, “ID NO:224),” for “ID NO:212),”

Ret(h) = Ret(h) (Homo sapiens, UniProt P07949); assay type: biochemical; details: read-out: percent residual activity of Ret(h)
Procedure: as §1
(§3) In a final reaction volume of 25 μl, Ret (h) (5-10 mU) is incubated with 8 mM MOPS pH 7.0, 0.2 mM EDTA, 250 μM KKKSPGEYVNIEFG (SEQ ID NO:207), 10 mM MgAcetate and [gamma-33P-ATP] (specific activity approx. 500 cpm/pmol, concentration as required). The reaction is initiated by the addition of the MgATP mix. After incubation for 40 minutes at room temperature, the reaction is stopped by the addition of 5 μl of a 3% phosphoric acid solution. 10 μl of the reaction is then spotted onto a P30 filtermat and washed three times for 5 minutes in 75 mM phosphoric acid and once in methanol prior to drying and scintillation counting.

SAPK4(h) = SAPK4(h) (Homo sapiens, UniProt O15264); assay type: biochemical; details: read-out: percent residual activity of SAPK4(h)
Procedure: as §1
as §3, with “SAPK4” for “Ret”, “25” for “8”, “Tris” for “MOPS”, “7.5, 0.02” for “7.0, 0.2”, “EGTA, 0.33 mg/ml myelin basic protein,” for “EDTA, 250 μM KKKSPGEYVNIEFG (SEQ ID NO:207),”

Chain of SAPK4(h) (O15264 whole entry): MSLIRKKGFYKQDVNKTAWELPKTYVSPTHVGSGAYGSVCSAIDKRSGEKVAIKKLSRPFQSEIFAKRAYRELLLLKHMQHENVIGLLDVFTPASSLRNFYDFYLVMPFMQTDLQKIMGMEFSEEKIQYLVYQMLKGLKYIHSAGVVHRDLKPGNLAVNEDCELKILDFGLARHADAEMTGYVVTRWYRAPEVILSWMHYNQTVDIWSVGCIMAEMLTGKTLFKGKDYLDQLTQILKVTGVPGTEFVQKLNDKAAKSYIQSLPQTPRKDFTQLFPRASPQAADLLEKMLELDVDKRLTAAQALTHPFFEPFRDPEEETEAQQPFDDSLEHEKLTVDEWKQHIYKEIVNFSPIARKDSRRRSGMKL
Chain of PAR-1Bα(h) (Q7KZI7 1-725 isoform Q7KZI7-4): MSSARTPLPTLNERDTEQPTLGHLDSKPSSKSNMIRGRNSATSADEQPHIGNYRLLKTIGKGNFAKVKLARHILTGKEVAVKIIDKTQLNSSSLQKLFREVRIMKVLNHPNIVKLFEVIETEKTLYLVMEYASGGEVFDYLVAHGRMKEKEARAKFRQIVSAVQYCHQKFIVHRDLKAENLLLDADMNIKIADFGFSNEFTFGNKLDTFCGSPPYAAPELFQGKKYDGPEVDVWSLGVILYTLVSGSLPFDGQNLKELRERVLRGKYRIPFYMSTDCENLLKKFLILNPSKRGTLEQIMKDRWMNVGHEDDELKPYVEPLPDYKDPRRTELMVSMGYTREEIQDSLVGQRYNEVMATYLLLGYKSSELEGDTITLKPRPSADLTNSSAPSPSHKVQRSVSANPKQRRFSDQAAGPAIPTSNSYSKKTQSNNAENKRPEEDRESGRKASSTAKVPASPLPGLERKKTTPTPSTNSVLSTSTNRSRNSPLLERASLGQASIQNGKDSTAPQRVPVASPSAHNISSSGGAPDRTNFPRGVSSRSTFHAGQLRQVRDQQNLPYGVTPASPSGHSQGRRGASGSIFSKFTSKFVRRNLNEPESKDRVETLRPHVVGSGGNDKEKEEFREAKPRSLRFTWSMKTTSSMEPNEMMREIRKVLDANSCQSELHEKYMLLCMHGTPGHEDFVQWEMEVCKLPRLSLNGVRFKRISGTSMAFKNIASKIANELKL
Chain of Ret(h) (P07949 29-1114): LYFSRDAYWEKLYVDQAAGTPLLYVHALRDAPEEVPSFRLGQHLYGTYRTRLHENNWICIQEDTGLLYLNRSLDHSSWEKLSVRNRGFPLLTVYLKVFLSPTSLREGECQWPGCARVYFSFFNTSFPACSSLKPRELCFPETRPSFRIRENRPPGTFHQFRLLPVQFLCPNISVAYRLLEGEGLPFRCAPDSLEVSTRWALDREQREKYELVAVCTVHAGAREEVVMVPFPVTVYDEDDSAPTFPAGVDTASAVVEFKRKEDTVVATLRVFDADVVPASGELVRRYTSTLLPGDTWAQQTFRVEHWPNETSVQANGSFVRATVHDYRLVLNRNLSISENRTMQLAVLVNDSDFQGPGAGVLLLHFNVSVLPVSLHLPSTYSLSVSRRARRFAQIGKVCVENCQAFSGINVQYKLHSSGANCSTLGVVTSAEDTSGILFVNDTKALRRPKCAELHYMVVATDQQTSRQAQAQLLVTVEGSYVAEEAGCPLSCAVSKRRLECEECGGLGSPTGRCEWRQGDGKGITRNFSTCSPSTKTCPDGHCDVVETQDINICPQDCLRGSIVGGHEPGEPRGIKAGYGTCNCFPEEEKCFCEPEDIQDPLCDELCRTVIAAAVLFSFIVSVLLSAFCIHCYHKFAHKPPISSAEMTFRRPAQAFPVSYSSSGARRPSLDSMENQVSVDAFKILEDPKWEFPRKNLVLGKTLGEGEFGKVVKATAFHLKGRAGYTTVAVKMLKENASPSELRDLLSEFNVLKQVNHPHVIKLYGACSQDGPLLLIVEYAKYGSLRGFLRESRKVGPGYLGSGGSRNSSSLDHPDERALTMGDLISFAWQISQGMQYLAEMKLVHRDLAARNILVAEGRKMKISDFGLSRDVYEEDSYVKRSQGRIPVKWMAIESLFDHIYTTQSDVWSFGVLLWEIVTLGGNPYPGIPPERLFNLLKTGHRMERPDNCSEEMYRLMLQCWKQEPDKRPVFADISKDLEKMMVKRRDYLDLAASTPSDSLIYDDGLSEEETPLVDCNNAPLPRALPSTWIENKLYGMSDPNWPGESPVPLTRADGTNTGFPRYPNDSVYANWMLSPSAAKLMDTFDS
Chain of PKCδ(h) (Q05655 whole entry): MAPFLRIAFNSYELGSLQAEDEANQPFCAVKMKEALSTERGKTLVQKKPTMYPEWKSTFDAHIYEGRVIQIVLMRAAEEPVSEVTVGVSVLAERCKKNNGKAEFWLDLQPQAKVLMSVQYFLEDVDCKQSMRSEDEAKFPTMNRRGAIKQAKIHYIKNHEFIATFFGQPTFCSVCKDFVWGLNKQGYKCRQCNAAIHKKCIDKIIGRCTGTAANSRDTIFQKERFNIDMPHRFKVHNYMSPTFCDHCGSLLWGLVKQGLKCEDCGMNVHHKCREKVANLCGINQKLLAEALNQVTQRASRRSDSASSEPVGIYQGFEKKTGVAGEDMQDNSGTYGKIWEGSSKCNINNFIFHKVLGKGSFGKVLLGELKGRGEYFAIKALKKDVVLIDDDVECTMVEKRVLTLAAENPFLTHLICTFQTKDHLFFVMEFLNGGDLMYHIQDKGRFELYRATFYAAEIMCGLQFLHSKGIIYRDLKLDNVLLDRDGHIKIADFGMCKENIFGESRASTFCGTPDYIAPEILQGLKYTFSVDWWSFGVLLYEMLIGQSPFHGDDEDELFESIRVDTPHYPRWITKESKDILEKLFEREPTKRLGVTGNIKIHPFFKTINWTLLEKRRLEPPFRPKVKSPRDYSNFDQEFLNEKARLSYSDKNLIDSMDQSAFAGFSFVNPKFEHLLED

Row | percent residual activity of CaMKII(r) (CaMKII(r)) [%] | remaining activity at 2.5 µM (PAR-1Bα(h)) [%] | remaining activity at 2.5 µM (PKA(h)) [%] | remaining activity at 2.5 µM (PKCδ(h)) [%] | remaining activity at 2.5 µM (Ret(h)) [%] | remaining activity at 2.5 µM (SAPK4(h)) [%] | SMILES
1 | 107 | 88 | 105 | 105 | 123 | 31 | CN1CCCC1CCNC(=O)c1cn2c3c(c(N4CCC(c5cnccn5)C4)c(F)cc3c1=O)Oc1cc3ccccc3cc1-2 (stereo not drawn) [Compound A-1]
2 | 113 | 100 | 97 | 100 | 92 | 105 | CC(=O)N1CCN(c2ccc3c(=O)c(C(=O)NCCN4CCCC4)c4n(C)c5ccccc5n4c3n2)CC1 [Compound B-1]
